Values of other authors as cited in patent US10329262B2, “Quinazolinone antibiotics” (priority 2013, dated 2019).

Conditions: cited from earlier work

Structure (SMILES): CCCCCCCCCC(=O)N[C@@H](Cc1c[nH]c2ccccc12)C(=O)N[C@H](CC(N)=O)C(=O)N[C@@H](CC(=O)O)C(=O)N[C@@H]1C(=O)NCC(=O)N[C@@H](CCCN)C(=O)N[C@@H](CC(=O)O)C(=O)N[C@H](C)C(=O)N[C@@H](CC(=O)O)C(=O)NCC(=O)N[C@H](CO)C(=O)N[C@@H]([C@H](C)CC(=O)O)C(=O)N[C@@H](CC(=O)c2ccccc2N)C(=O)O[C@@H]1C [daptomycin]
- Plasma protein binding: > 91%
